Source: article PMC12679645, “Diversifying the triquinazine scaffold of a Janus kinase inhibitor” (RSC Medicinal Chemistry, 2025)
Where two headings read alike, the source gives them in different places.

How the values were obtained:
JAK3 [1] = target: T1, JAK3 (Homo sapiens, UniProt P52333); experiment: biochemical; set-up: Eurofins Cerep biochemical enzymatic kinase assay, per cent inhibition at a single concentration, duplicate; conditions: read-out: % of inhibition ^a / JAK3
T1 sequence (P52333 1-1124): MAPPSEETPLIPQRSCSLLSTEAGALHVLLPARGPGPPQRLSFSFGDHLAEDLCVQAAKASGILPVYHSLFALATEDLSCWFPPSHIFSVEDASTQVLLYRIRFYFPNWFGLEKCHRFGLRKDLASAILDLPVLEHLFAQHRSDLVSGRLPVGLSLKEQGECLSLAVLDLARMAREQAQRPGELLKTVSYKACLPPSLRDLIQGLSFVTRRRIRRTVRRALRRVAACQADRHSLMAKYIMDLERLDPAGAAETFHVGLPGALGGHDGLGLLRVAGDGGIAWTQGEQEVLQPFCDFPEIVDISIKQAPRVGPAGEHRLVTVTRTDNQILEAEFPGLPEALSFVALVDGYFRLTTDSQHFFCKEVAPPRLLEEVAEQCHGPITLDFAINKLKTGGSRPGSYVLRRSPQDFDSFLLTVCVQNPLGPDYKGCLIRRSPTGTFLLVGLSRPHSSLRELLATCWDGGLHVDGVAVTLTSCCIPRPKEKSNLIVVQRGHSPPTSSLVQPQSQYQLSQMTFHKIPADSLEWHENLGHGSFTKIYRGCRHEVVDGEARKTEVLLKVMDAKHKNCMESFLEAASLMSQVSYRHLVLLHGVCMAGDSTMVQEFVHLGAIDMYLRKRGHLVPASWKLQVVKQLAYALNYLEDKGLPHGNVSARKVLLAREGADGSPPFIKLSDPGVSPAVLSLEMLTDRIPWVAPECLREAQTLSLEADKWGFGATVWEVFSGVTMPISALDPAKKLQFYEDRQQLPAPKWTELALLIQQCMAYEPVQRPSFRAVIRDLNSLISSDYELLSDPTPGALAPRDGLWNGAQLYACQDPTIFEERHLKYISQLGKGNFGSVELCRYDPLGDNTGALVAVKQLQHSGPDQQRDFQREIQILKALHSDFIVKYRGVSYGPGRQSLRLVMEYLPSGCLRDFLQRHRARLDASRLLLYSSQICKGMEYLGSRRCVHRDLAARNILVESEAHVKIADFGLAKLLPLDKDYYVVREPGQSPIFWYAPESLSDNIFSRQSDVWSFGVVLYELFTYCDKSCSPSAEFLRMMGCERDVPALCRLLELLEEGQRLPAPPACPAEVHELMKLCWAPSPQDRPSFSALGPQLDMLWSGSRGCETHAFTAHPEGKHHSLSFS

JAK1 [2] = target: T2, JAK1 (Homo sapiens, UniProt P23458); experiment: biochemical enzymatic kinase assay, % inhibition at […]
JAK2 [3] = target: T3, JAK2 (Homo sapiens, UniProt O60674); experiment: biochemical; set-up: Eurofins Cerep biochemical enzymatic kinase assay, per cent inhibition at a single concentration, duplicate
Description: (§1) Spiro diamines containing a deazapurine ring are known JAK inhibitors.[35]

TYK2 [4] = target: T4, TYK2 (Homo sapiens, UniProt P29597); experiment: biochemical; set-up: Eurofins Cerep biochemical enzymatic kinase assay, per cent inhibition at a single concentration, duplicate
Description: as §1

JAK2 [5] = target: T3, JAK2; experiment: biochemical; set-up: radiometric filter-binding kinase inhibition assay (Eurofins Cerep), scintillation counting
Procedure: (§2) Given the structural similarities between the expanded ring analogues 16a and 16b and the previously described inhibitor KMC420, we initially evaluated their activity at 0.1 μM against JAK1, JAK2, JAK3, and TYK2, using biochemical enzymatic assays provided by Eurofins Cerep SA.

JAK1 [6] = target: T2, JAK1; experiment: biochemical; set-up: radiometric filter-binding kinase inhibition assay (Eurofins Cerep), scintillation counting
Procedure: as §2

TYK2 [7] = target: T4, TYK2; experiment: biochemical; set-up: radiometric filter-binding kinase inhibition assay (Eurofins Cerep), scintillation counting
Procedure: as §2

JAK3 [8] = target: T1, JAK3; experiment: biochemical; set-up: radiometric filter-binding kinase inhibition assay (Eurofins Cerep), scintillation counting
Procedure: as §2

JAK1 [9] = target: T2, JAK1; experiment: biochemical enzymatic kinase assay, % inhibition at […]; remark: listed apart in the source
JAK3 [10] = target: T1, JAK3; experiment: as above
TYK2 [11] = target: T4, TYK2; experiment: as above
JAK1 [12] = target: T2, JAK1; experiment: biochemical; set-up: Eurofins Cerep biochemical enzymatic kinase assay, per cent inhibition at a single concentration, duplicate
Procedure: Given the structural similarities between the expanded ring analogues 16a and 16b and the previously described inhibitor KMC420, we initially evaluated their activity at 0.1 μM against JAK1, JAK2, JAK3, and TYK2, using biochemical enzymatic assays provided by Eurofins Cerep SA. […] Spiro diamines containing a deazapurine ring are known JAK inhibitors.[35] […] However, this compound was not tested against the other JAK enzymes. Due to its similarity to our potent compound 40a, we decided to investigate its inhibitory activity against the four enzymes at a concentration of 0.1 μM. […] To investigate the binding differences between 40a and (R)-KMC420, we performed docking studies with DOCK6 using the JAK1 co-crystal structure with tofacitinib (PDB 3EYG) as receptor.

JAK1 [13] = target: T2, JAK1; experiment: biochemical enzymatic kinase assay (Eurofins Cerep), IC50 curve

T2 sequence (P23458 whole entry): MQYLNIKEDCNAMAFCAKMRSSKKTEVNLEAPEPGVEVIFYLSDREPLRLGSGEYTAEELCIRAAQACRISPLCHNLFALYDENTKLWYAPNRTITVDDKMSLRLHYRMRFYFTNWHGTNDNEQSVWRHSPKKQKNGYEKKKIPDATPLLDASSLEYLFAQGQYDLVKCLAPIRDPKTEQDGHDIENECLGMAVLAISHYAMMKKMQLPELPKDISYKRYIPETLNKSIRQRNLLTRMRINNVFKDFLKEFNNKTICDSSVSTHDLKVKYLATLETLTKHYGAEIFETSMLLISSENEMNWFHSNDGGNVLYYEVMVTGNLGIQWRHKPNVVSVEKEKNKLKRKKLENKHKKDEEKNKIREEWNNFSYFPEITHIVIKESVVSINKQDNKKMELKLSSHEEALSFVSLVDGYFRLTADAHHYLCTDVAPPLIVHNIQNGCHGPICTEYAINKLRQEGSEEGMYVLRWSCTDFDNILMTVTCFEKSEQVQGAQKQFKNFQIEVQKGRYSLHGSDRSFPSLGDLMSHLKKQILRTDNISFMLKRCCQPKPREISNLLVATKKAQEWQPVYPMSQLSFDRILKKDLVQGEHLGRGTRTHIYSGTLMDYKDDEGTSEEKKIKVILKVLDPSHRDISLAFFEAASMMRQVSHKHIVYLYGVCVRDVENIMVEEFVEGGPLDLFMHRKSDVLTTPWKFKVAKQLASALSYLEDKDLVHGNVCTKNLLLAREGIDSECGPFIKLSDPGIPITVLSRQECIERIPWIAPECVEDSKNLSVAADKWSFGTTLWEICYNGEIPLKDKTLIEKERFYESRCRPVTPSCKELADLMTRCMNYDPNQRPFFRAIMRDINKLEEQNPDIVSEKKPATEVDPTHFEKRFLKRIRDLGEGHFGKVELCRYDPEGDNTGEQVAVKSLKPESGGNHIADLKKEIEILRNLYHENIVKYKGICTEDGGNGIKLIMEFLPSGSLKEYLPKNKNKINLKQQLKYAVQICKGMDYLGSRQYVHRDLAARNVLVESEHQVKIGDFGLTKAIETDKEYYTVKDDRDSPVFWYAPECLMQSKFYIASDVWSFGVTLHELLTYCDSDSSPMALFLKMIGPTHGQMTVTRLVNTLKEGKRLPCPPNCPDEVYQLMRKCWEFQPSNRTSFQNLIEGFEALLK
T4 sequence (P29597 whole entry): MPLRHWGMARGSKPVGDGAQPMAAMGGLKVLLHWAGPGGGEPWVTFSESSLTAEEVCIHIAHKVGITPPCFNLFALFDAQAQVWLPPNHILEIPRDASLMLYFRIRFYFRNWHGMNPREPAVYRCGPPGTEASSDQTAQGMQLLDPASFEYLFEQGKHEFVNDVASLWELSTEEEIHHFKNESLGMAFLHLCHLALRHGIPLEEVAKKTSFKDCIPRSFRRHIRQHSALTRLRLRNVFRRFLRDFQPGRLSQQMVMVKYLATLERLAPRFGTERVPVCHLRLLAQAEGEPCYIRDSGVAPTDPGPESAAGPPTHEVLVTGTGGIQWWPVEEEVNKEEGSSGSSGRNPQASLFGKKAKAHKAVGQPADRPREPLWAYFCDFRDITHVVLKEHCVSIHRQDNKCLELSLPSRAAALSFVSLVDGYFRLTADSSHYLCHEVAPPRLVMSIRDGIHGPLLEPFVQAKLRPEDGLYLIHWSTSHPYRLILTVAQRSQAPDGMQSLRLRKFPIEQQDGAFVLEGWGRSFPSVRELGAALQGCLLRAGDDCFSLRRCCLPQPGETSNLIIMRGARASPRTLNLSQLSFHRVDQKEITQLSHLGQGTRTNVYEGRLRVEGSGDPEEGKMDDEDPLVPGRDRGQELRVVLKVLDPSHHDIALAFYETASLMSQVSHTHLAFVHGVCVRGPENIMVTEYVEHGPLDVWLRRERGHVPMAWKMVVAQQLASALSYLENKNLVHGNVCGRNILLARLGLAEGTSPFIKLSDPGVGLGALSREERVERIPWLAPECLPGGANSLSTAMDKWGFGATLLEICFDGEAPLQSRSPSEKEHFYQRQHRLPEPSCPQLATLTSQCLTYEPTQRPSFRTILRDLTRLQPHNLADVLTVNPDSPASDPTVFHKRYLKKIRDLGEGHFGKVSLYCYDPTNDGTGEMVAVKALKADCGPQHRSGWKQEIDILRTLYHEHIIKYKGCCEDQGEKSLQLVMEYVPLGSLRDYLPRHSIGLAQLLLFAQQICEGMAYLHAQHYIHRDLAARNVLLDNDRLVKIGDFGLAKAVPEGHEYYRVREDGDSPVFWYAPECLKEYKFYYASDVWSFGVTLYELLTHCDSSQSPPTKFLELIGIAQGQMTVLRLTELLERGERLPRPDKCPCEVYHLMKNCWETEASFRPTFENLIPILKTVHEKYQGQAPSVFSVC
T3 sequence (O60674 whole entry): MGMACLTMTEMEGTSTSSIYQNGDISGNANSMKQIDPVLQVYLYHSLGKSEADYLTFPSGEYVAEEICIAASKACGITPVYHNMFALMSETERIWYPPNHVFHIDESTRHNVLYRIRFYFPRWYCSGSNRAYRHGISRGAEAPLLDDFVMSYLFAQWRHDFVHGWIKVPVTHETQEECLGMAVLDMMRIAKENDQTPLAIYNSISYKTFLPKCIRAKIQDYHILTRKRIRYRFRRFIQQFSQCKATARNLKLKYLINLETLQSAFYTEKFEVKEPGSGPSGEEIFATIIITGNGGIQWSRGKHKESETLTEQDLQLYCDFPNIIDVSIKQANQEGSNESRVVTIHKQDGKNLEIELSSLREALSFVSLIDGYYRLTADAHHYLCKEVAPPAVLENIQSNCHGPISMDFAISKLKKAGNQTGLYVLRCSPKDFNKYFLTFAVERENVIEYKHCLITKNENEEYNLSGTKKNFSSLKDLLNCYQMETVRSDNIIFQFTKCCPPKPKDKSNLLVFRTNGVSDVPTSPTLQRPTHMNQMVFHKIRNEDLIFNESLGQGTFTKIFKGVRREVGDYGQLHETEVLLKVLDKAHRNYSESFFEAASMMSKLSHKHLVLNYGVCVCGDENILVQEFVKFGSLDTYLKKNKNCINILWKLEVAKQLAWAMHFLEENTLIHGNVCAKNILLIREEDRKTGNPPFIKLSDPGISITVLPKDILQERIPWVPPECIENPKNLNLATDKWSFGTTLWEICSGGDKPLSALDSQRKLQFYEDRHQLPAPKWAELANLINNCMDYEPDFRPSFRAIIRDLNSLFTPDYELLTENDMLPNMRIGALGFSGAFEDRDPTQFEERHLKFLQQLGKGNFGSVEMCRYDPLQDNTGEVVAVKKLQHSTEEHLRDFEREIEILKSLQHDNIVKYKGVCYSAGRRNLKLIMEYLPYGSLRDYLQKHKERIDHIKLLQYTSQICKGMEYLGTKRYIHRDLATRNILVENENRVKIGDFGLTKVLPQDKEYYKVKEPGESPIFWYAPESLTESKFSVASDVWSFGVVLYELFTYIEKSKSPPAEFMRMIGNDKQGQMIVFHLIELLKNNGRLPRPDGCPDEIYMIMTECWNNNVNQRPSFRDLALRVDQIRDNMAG

C[C@]12CCN(c3ncnc4[nH]ccc34)[C@H]1CC[C@H]2NC#N (racemic) [34c]
inhibition at 1 µM (JAK3 [1]): 43 ± 3%
inhibition at 1 µM (JAK1 [2]): 89 ± 2%
inhibition at 1 µM (JAK2 [3]): 45 ± 8%
inhibition at 1 µM (TYK2 [4]): 53 ± 5%

CCS(=O)(=O)N[C@@H]1CC[C@@H]2N(c3ncnc4[nH]ccc34)CC[C@@]21C (racemic) [34d]
inhibition at 1 µM (JAK3 [1]): 45 ± 6%
inhibition at 1 µM (JAK1 [2]): 88 ± 1%
inhibition at 1 µM (JAK2 [3]): 61 ± 1%
inhibition at 1 µM (TYK2 [4]): 56 ± 1%

C=CC(=O)N[C@H]1CC[C@@H]2N(c3ncnc4[nH]ccc34)CC[C@]12C (racemic) [40b]
inhibition at 0.1 µM (JAK3 [1]): 4 ± 1%
inhibition at 0.1 µM (JAK2 [3]): 8 ± 1%
inhibition at 0.1 µM (TYK2 [4]): 16 ± 2%
inhibition at 1 µM (JAK2 [5]): 52%
inhibition at 10 µM (JAK2 [5]): 96%
inhibition at 1 µM (JAK1 [6]): 93%
inhibition at 10 µM (JAK1 [6]): 100%
inhibition at 1 µM (TYK2 [7]): 70%
inhibition at 10 µM (TYK2 [7]): 100%
inhibition at 1 µM (JAK3 [8]): 55%
inhibition at 10 µM (JAK3 [8]): 99%
inhibition at 0.1 µM (JAK1 [9]): 59 ± 2%

C[C@]12CCN(c3ncnc4[nH]ccc34)[C@H]1CC[C@@H]2NC#N (racemic) [40c]
inhibition at 0.1 µM (JAK3 [10]): 58 ± 1%
inhibition at 0.1 µM (TYK2 [11]): 61%
inhibition at 0.1 µM (JAK2 [3]): 18 ± 6%
inhibition at 1 µM (JAK2 [5]): 58%
inhibition at 10 µM (JAK2 [5]): 85%
inhibition at 1 µM (JAK1 [6]): 95%
inhibition at 10 µM (JAK1 [6]): 100%
inhibition at 1 µM (TYK2 [7]): 92%
inhibition at 10 µM (TYK2 [7]): 91%
inhibition at 1 µM (JAK3 [8]): 96%
inhibition at 10 µM (JAK3 [8]): 79%
inhibition at 0.1 µM (JAK1 [9]): 70 ± 2%

N#CN1CCC2(CCN(c3ncnc4[nH]ccc34)C2)C1 (racemic) [43c]
inhibition at 1 µM (JAK3 [1]): 26 ± 1%
inhibition at 1 µM (JAK1 [2]): 93 ± 1%
inhibition at 1 µM (JAK2 [3]): 59 ± 4%
inhibition at 1 µM (TYK2 [4]): 63 ± 2%

CC12CCN(c3ncnc4[nH]ccc34)C1CCC2NC(=O)CC#N (stereo not shown) [34a]
inhibition at 1 µM (JAK3 [1]): 43 ± 5%
inhibition at 1 µM (JAK1 [12]): 85 ± 1%
inhibition at 1 µM (JAK2 [3]): 41 ± 5%
inhibition at 1 µM (TYK2 [4]): 41 ± 6%

C=CC(=O)NC1CCC2N(c3ncnc4[nH]ccc34)CCC12C (stereo not shown) [34b]
inhibition at 1 µM (JAK3 [1]): 38 ± 1%
inhibition at 1 µM (JAK1 [12]): 73 ± 1%
inhibition at 1 µM (JAK2 [3]): 27 ± 3%
inhibition at 1 µM (TYK2 [4]): 23 ± 5%

CC12CCN(C(=O)CC#N)C1CCC2Nc1ncnc2[nH]ccc12 (stereo not shown) [36a]
inhibition at 10 µM (JAK1 [12]): 94%
inhibition at 10 µM (JAK2 [3]): 60%
inhibition at 10 µM (TYK2 [4]): 75 ± 2%

C=CC(=O)N1CCC2(C)C(Nc3ncnc4[nH]ccc34)CCC12 (stereo not shown) [36b]
inhibition at 10 µM (JAK3 [1]): 63 ± 1%
inhibition at 10 µM (JAK1 [12]): 84 ± 2%
inhibition at 10 µM (JAK2 [3]): 47 ± 2%
inhibition at 10 µM (TYK2 [4]): 52%

CC12CCN(C#N)C1CCC2Nc1ncnc2[nH]ccc12 (stereo not shown) [36c]
inhibition at 10 µM (JAK1 [12]): 92%
inhibition at 10 µM (JAK2 [3]): 80 ± 3%
inhibition at 10 µM (TYK2 [4]): 74 ± 3%

CCS(=O)(=O)N1CCC2(C)C(Nc3ncnc4[nH]ccc34)CCC12 (stereo not shown) [36d]
inhibition at 10 µM (JAK3 [1]): 42 ± 3%
inhibition at 10 µM (JAK1 [12]): 86 ± 1%
inhibition at 10 µM (JAK2 [3]): 51 ± 3%
inhibition at 10 µM (TYK2 [4]): 67 ± 1%
inhibition at 1 µM (JAK2 [5]): 11%
inhibition at 10 µM (JAK2 [5]): 98%
inhibition at 1 µM (JAK1 [6]): 45%
inhibition at 10 µM (JAK1 [6]): 99%
inhibition at 1 µM (TYK2 [7]): 53%
inhibition at 10 µM (TYK2 [7]): 97%
inhibition at 1 µM (JAK3 [8]): 44%
inhibition at 10 µM (JAK3 [8]): 96%

CC12CCN(c3ncnc4[nH]ccc34)C1CCC2NC(=O)CC#N (stereo not shown) [40a]
inhibition at 0.1 µM (JAK3 [1]): 27 ± 1%
inhibition at 0.1 µM (JAK1 [12]): 80 ± 3%
inhibition at 0.1 µM (JAK2 [3]): 3 ± 1%
inhibition at 0.1 µM (TYK2 [4]): 29 ± 3%
inhibition at 1 µM (JAK2 [5]): 72%
inhibition at 10 µM (JAK2 [5]): 91%
inhibition at 1 µM (JAK1 [6]): 99%
inhibition at 10 µM (JAK1 [6]): 99%
inhibition at 1 µM (TYK2 [7]): 82%
inhibition at 10 µM (TYK2 [7]): 95%
inhibition at 1 µM (JAK3 [8]): 79%
inhibition at 10 µM (JAK3 [8]): 89%

CCS(=O)(=O)NC1CCC2N(c3ncnc4[nH]ccc34)CCC12C (stereo not shown) [40d]
inhibition at 0.1 µM (JAK3 [1]): -10 ± 11%
inhibition at 0.1 µM (JAK1 [12]): 28 ± 6%
inhibition at 0.1 µM (JAK2 [3]): 1 ± 8%
inhibition at 0.1 µM (TYK2 [4]): 11 ± 12%
inhibition at 1 µM (JAK2 [5]): 38%
inhibition at 1 µM (JAK1 [6]): 76%
inhibition at 1 µM (JAK3 [8]): 11%

CCS(=O)(=O)N1CCC2(CCN(c3ncnc4[nH]ccc34)C2)C1 (stereo not shown) [43d]
inhibition at 1 µM (JAK3 [1]): 22 ± 1%
inhibition at 1 µM (JAK1 [12]): 87 ± 1%
inhibition at 1 µM (JAK2 [3]): 54 ± 6%
inhibition at 1 µM (TYK2 [4]): 34 ± 8%

C[C@]12CCN(c3ncnc4[nH]ccc34)[C@H]1CC[C@@H]2NC(=O)CC#N [(R,S,S)-40a]
IC50 (JAK1 [13]): 69 nM

C[C@@]12CCN(c3ncnc4[nH]ccc34)[C@@H]1CC[C@H]2NC(=O)CC#N [(S,R,R)-40a]
IC50 (JAK1 [13]): 18 nM
